Experimental data from the supplement of paper PMC10307832.

How the values were obtained:
Test in all cases: relative viability (nuclei count vs DMSO), 5 days (fraction); higher = more cells survive
[1] = test system: COR-L23
Procedure, shortened: (§1)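 The day after seeding in 1536-well plates, lung cancer cell lines were treated by pin tool with a single drug, or with a fixed anchor-drug dose together with five library-drug doses (not always all listed) in √10 steps. After 5 days, a combined fix-and-stain solution (final 0.05% Triton X-100, 1% formaldehyde, 1 ug/ml Hoechst) was added. Nuclei counted on 4× images gave relative viability as treated counts over vehicle counts, reported as the median of duplicate plates.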

[2] = test system: ChaGo-K-1
Procedure, shortened: as §1

[3] = test system: EMC-BAC-2
Procedure, shortened: as §1

[4] = test system: EPLC-272H
Procedure, shortened: as §1

[5] = test system: H3255
Procedure, shortened: as §1

[6] = test system: HCC-44
Procedure, shortened: as §1

[7] = test system: HCC-827
Procedure, shortened: as §1

[8] = test system: LCLC-103H
Procedure, shortened: as §1

[9] = test system: LU99A
Procedure, shortened: as §1

[10] = test system: NCI-H1395
Procedure, shortened: as §1

[11] = test system: NCI-H1651
Procedure, shortened: as §1

[12] = test system: NCI-H1793
Procedure, shortened: as §1

[13] = test system: NCI-H1944
Procedure, shortened: as §1

[14] = test system: NCI-H2023
Procedure, shortened: as §1

[15] = test system: NCI-H2085
Procedure, shortened: as §1

[16] = test system: NCI-H2087
Procedure, shortened: as §1

[17] = test system: NCI-H2405
Procedure, shortened: as §1

[18] = test system: NCI-H520
Procedure, shortened: as §1

[19] = test system: NCI-H650
Procedure, shortened: as §1

[20] = test system: NCI-H838
Procedure, shortened: as §1

[21] = test system: SK-MES-1
Procedure, shortened: as §1

Cc1sc2c(c1C)C(c1ccc(Cl)cc1)=N[C@@H](CC(=O)OC(C)(C)C)c1nnc(C)n1-2 [JQ1] + O=C(c1cc(Cc2n[nH]c(=O)c3ccccc23)ccc1F)N1CCN(C(=O)C2CC2)CC1 [Olaparib] (partner 8 µM)
relative viability ([1]; first compound 0.04 µM): 0.357 | relative viability ([1]; first compound 0.1265 µM): 0.229 | relative viability ([1]; first compound 0.4 µM): 0.295 | relative viability ([1]; first compound 1.265 µM): 0.11 | relative viability ([1]; first compound 4 µM): 0.136 | relative viability ([2]; first compound 0.04 µM): 0.392 | relative viability ([2]; first compound 0.1265 µM): 0.37 | relative viability ([2]; first compound 0.4 µM): 0.29 | relative viability ([2]; first compound 1.265 µM): 0.239 | relative viability ([2]; first compound 4 µM): 0.214 | relative viability ([3]; first compound 0.04 µM): 0.447 | relative viability ([3]; first compound 0.1265 µM): 0.433 | relative viability ([3]; first compound 0.4 µM): 0.391 | relative viability ([3]; first compound 1.265 µM): 0.32 | relative viability ([3]; first compound 4 µM): 0.259 | relative viability ([4]; first compound 0.04 µM): 0.836 | relative viability ([4]; first compound 0.1265 µM): 0.716 | relative viability ([4]; first compound 0.4 µM): 0.53 | relative viability ([4]; first compound 1.265 µM): 0.471 | relative viability ([4]; first compound 4 µM): 0.199 | relative viability ([5]; first compound 0.04 µM): 0.528 | relative viability ([5]; first compound 0.1265 µM): 0.492 | relative viability ([5]; first compound 0.4 µM): 0.439 | relative viability ([5]; first compound 1.265 µM): 0.305 | relative viability ([5]; first compound 4 µM): 0.264 | relative viability ([6]; first compound 0.04 µM): 0.978 | relative viability ([6]; first compound 0.1265 µM): 1.03 | relative viability ([6]; first compound 0.4 µM): 0.893 | relative viability ([6]; first compound 1.265 µM): 0.851 | relative viability ([6]; first compound 4 µM): 0.442 | relative viability ([7]; first compound 0.04 µM): 0.622 | relative viability ([7]; first compound 0.1265 µM): 0.477 | relative viability ([7]; first compound 1.265 µM): 0.596 | relative viability ([7]; first compound 4 µM): 0.363 | relative viability ([8]; first compound 0.04 µM): 0.789 | relative viability ([8]; first compound 0.1265 µM): 0.714 | relative viability ([8]; first compound 0.4 µM): 0.605 | relative viability ([8]; first compound 1.265 µM): 0.528 | relative viability ([8]; first compound 4 µM): 0.432 | relative viability ([9]; first compound 0.04 µM): 0.264 | relative viability ([9]; first compound 0.4 µM): 0.169 | relative viability ([9]; first compound 1.265 µM): 0.114 | relative viability ([9]; first compound 4 µM): 0.111 | relative viability ([10]; first compound 0.04 µM): 0.489 | relative viability ([10]; first compound 0.1265 µM): 0.452 | relative viability ([10]; first compound 0.4 µM): 0.449 | relative viability ([10]; first compound 1.265 µM): 0.378 | relative viability ([10]; first compound 4 µM): 0.356 | relative viability ([11]; first compound 0.04 µM): 0.175 | relative viability ([11]; first compound 0.1265 µM): 0.173 | relative viability ([11]; first compound 0.4 µM): 0.151 | relative viability ([11]; first compound 1.265 µM): 0.132 | relative viability ([11]; first compound 4 µM): 0.136 | relative viability ([12]; first compound 0.04 µM): 0.882 | relative viability ([12]; first compound 0.1265 µM): 0.735 | relative viability ([12]; first compound 0.4 µM): 0.666 | relative viability ([12]; first compound 1.265 µM): 0.526 | relative viability ([12]; first compound 4 µM): 0.52 | relative viability ([13]; first compound 0.04 µM): 0.405 | relative viability ([13]; first compound 0.1265 µM): 0.391 | relative viability ([13]; first compound 0.4 µM): 0.314 | relative viability ([13]; first compound 1.265 µM): 0.232 | relative viability ([13]; first compound 4 µM): 0.235 | relative viability ([14]; first compound 0.04 µM): 0.442 | relative viability ([14]; first compound 0.1265 µM): 0.342 | relative viability ([14]; first compound 0.4 µM): 0.207 | relative viability ([14]; first compound 1.265 µM): 0.104 | relative viability ([14]; first compound 4 µM): 0.0832 | relative viability ([15]; first compound 0.04 µM): 0.781 | relative viability ([15]; first compound 0.1265 µM): 0.696 | relative viability ([15]; first compound 0.4 µM): 0.693 | relative viability ([15]; first compound 1.265 µM): 0.601 | relative viability ([15]; first compound 4 µM): 0.604 | relative viability ([16]; first compound 0.04 µM): 0.503 | relative viability ([16]; first compound 0.1265 µM): 0.509 | relative viability ([16]; first compound 0.4 µM): 0.646 | relative viability ([16]; first compound 1.265 µM): 0.381 | relative viability ([16]; first compound 4 µM): 0.297 | relative viability ([17]; first compound 0.04 µM): 0.867 | relative viability ([17]; first compound 0.4 µM): 0.851 | relative viability ([17]; first compound 1.265 µM): 0.693 | relative viability ([17]; first compound 4 µM): 0.433 | relative viability ([18]; first compound 0.04 µM): 0.285 | relative viability ([18]; first compound 0.1265 µM): 0.298 | relative viability ([18]; first compound 0.4 µM): 0.251 | relative viability ([18]; first compound 1.265 µM): 0.165 | relative viability ([18]; first compound 4 µM): 0.156 | relative viability ([19]; first compound 0.04 µM): 0.363 | relative viability ([19]; first compound 0.1265 µM): 0.306 | relative viability ([19]; first compound 0.4 µM): 0.273 | relative viability ([19]; first compound 1.265 µM): 0.151 | relative viability ([19]; first compound 4 µM): 0.146 | relative viability ([20]; first compound 0.04 µM): 0.749 | relative viability ([20]; first compound 0.1265 µM): 0.327 | relative viability ([20]; first compound 0.4 µM): 0.395 | relative viability ([20]; first compound 1.265 µM): 0.237 | relative viability ([20]; first compound 4 µM): 0.174 | relative viability ([21]; first compound 0.04 µM): 0.671 | relative viability ([21]; first compound 0.1265 µM): 0.606 | relative viability ([21]; first compound 0.4 µM): 0.385 | relative viability ([21]; first compound 1.265 µM): 0.208 | relative viability ([21]; first compound 4 µM): 0.209
